The subject of assay [1] is A549 cells. Briefly: Measurement of PGE2-increasing activity in A549 cells (IL-1β stimulated, PGE2 quantified in supernatant). The class given is cell-based. The following applies: Homo sapiens, 24 h; concentration of 1 µM of each compound; IL-1β treated A549 cells; read-out: Increased PGE2 production in A549 cells. The method in brief: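 A549 cells grown 24 h in F12K with 10% FBS, then switched to serum-free medium with or without IL-1β and compound (0.1% DMSO final). After 24 h at 37 °C, 5% CO2, supernatant PGE2 quantified by immunoassay.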

Assay [2] has as its target T1, human 15-PGDH (Homo sapiens, UniProt P15428).
T1 construct: purchased R&D System 5660-DH
T1 sequence (P15428 1-266): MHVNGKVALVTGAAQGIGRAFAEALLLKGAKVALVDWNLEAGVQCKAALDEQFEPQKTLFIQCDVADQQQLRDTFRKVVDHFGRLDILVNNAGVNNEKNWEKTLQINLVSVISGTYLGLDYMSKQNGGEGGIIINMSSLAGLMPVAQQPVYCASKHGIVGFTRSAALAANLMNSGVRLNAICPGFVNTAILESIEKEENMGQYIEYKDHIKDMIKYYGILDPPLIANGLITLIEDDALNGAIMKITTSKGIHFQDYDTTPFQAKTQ
Briefly: Evaluation of 15-PGDH inhibitory activity (fluorescence enzyme assay, NAD+/PGE2). The following applies: human 15-PGDH enzyme, fluorescence Vmax. The class given is biochemical. The method, then: 15-PGDH inhibition activity of Example compounds was measured as follows. 6.7 ng of human 15-PGDH (R&D System# 5660-DH) enzyme (10 µL) was added to a black 96 well plate, 60 µL of buffer (50 mM Tris-HCl, pH 7.5, 0.01% Tween 20) was added, and 10 µL of 200 µM β-Nicotinamide adenine dinucleotide sodium salt (Sigma, Cat# N0632-5G) was added. 10 µL of (10x) compound solution in DMSO was added and reacted for 10 minutes at room temperature.

One may read the IC50 as the concentration at which inhibition is half-maximal. The low end stands for inhibition by little substance, the high end for a need for much substance. Regarding `Cc1noc(C)c1-c1cc(-c2cccc3c(C(=O)N4CCCCC4)cnn23)cc(N2CCOC2=O)n1` [Example 368, 3-(6-(3,5-dimethylisoxazol-4-yl)-4-(3-(piperidine-1-carbonyl)pyrazolo[1,5-a]pyridin-7-yl)pyridin-2-yl)oxazolidin-2-one], the fold induction at 1 µM in assay [1] is above 1.5. In addition, in assay [2], the IC50 was at most 100 nM.
On the same counts, the results for `O=C(c1cnn2c(-c3cnc(Cl)c(F)c3)cccc12)N1CCCCC1` [Example 281, (7-(6-chloro-5-fluoropyridin-3-yl)pyrazolo[1,5-a]pyridin-3-yl)(piperidin-1-yl)methanone] are above 1.5 and at most 100 nM.
On the same counts, the results for `CN1CCC(Nc2cccc3c(C(=O)N4CCCCC4)cnn23)CC1` [Example 150, (7-((1-methylpiperidin-4-yl)amino)pyrazolo[1,5-a]pyridin-3-yl)(piperidin-1-yl)methanone] are below 1.5 and 100 to 1000 nM.
On the same counts, the results for `CN1CCC(NC(=O)c2ccc(-c3cccc4c(C(=O)N5CCCCC5)cnn34)cc2)CC1` [Example 65, N-(1-methylpiperidin-4-yl)-4-(3-(piperidine-1-carbonyl)pyrazolo[1,5-a]pyridin-7-yl)benzamide] are below 1.5 and at most 100 nM.
Take `CN(C)CC(=O)Nc1ccc(-c2cccc3c(C(=O)N4CCCCC4)cnn23)cn1` [Example 104, 2-(dimethylamino)-N-(5-(3-(piperidine-1-carbonyl)pyrazolo[1,5-a]pyridin-7-yl)pyridin-2-yl)acetamide]: the fold induction at 1 µM in assay [1] was above 1.5. For the same compound, the IC50 in assay [2] was at most 100 nM.
On the same counts, the results for `CC(C)NC(=O)c1ccc(-c2cccc3c(C(=O)N4CCCCC4)cnn23)cn1` [Example 76, N-isopropyl-5-(3-(piperidine-1-carbonyl)pyrazolo[1,5-a]pyridin-7-yl)picolinamide] are above 1.5 and at most 100 nM.
On the same counts, the results for `CC(C)NC(=O)c1ccc(-c2cccc3c(C(=O)N4CCCCC4)cnn23)cc1` [Example 60, N-isopropyl-4-(3-(piperidine-1-carbonyl)pyrazolo[1,5-a]pyridin-7-yl)benzamide] are above 1.5 and at most 100 nM.
On the same counts, the results for `COC(=O)c1ncc(-c2cccc3c(C(=O)N4CCCCC4)cnn23)cc1F` [Example 244, methyl 3-fluoro-5-[3-(piperidine-1-carbonyl)pyrazolo[1,5-a]pyridin-7-yl]pyridine-2-carboxylate] are below 1.5 and at most 100 nM.
Consider `O=C(c1cnn2c(-c3ccc(Cl)nc3F)cccc12)N1CCCCC1` [Example 315, (7-(6-chloro-2-fluoropyridin-3-yl)pyrazolo[1,5-a]pyridin-3-yl)(piperidin-1-yl)methanone], for which the fold induction at 1 µM in assay [1] was above 1.5. The concentration for half-maximal inhibition (IC50) in assay [2] is at most 100 nM.
As for `O=C(Nc1ccc(-c2cccc3c(C(=O)N4CCCCC4)cnn23)cc1)C1CCCCC1` [Example 102, N-(4-(3-(piperidine-1-carbonyl)pyrazolo[1,5-a]pyridin-7-yl)phenyl)cyclohexanecarboxamide], the fold induction at 1 µM in assay [1] was below 1.5. The compound further returned an IC50 in assay [2] of at most 100 nM.
On the same counts, the results for `N#CCCNC(=O)c1ccc(-c2cccc3c(C(=O)N4CCCCC4)cnn23)o1` [Example 90, N-(2-cyanoethyl)-5-(3-(piperidine-1-carbonyl)pyrazolo[1,5-a]pyridin-7-yl)furan-2-carboxamide] are above 1.5 and at most 100 nM.
On the same counts, the results for `O=C(c1cnn2c(-c3ccc(N4C5CCC4CC5)nc3)cccc12)N1CCCCC1` [Example 217] are above 1.5 and at most 100 nM.
Regarding `CN1CCC(NC(=O)c2cncc(-c3cccc4c(C(=O)N5CCCCC5)cnn34)c2)CC1` [Example 47, N-(1-methylpiperidin-4-yl)-5-(3-(piperidine-1-carbonyl)pyrazolo [1,5-a]pyridin-7-yl)nicotinamide], the fold induction at 1 µM in assay [1] is above 1.5. This compound also returned an IC50 in assay [2] of at most 100 nM.
On the same counts, the results for `O=C(c1cnn2c(-c3ccc4cn[nH]c(=O)c4c3)cccc12)N1CCCCC1` [Example 224, 7-(3-(piperidine-1-carbonyl)pyrazolo[1,5-a]pyridin-7-yl)phthalazin-1(2H)-one] are above 1.5 and at most 100 nM.
On the same counts, the results for `O=C(c1cnn2c(-c3ccc(-c4n[nH]c(=O)o4)cc3)cccc12)N1CCCCC1` [Example 349, 5-[4-[3-(piperidine-1-carbonyl)pyrazolo[1,5-a]pyridin-7-yl]phenyl]-3H-1,3,4-oxadiazol-2-one] are above 1.5 and at most 100 nM.
For `CC1CCCN(C(=O)c2cnn3c(-c4ccc(F)nc4)cccc23)C1` (stereo not shown) [Example 336, (7-(6-fluoropyridin-3-yl)pyrazolo[1,5-a]pyridin-3-yl)(3-methylpiperidin-1-yl)methanone], in assay [1], the fold induction at 1 µM is above 1.5. The compound also yielded an IC50 in assay [2] of at most 100 nM.
For `O=C(c1cncc(-c2cccc3c(C(=O)N4CCCCC4)cnn23)c1)N1CC(=NO)C1` [Example 230, (3-hydroxyiminoazetidin-1-yl)-[5-[3-(piperidine-1-carbonyl)pyrazolo[1,5-a]pyridin-7-yl]-3-pyridyl]methanone], in assay [1], the fold induction at 1 µM was above 1.5. This compound also came in with an IC50 in assay [2] of at most 100 nM.
On the same counts, the results for `Nc1nc(-c2ccc(-c3cccc4c(C(=O)N5CCCCC5)cnn34)cc2)no1` [Example 359, [7-[4-(5-amino-1,2,4-oxadiazol-3-yl)phenyl]pyrazolo[1,5-a]pyridin-3-yl]-(1-piperidyl)methanone] are above 1.5 and at most 100 nM.
The like results for `O=C(c1ccc(-c2cccc3c(C(=O)N4CCCCC4)cnn23)cn1)N1CC2(CCC2)C1` [Example 214, 2-azaspiro[3.3]heptan-2-yl-[5-[3-(piperidine-1-carbonyl)pyrazolo[1,5-a]pyridin-7-yl]-2-pyridyl]methanone] were, in that order, above 1.5 and at most 100 nM.
On to `O=C(c1cccc(-c2cccc3c(C(=O)N4CCCCC4)cnn23)c1)N1CCNCC1` [Example 34, piperazin-1-yl(3-(3-(piperidine-1-carbonyl)pyrazolo[1,5-a]pyridin-7-yl)phenyl)methanone], for which, in assay [1], the fold induction at 1 µM was above 1.5. In assay [2], this compound displayed an IC50 of at most 100 nM.
Take `COCCC(=O)Nc1cncc(-c2cccc3c(C(=O)N4CCCCC4)cnn23)c1` [Example 197]: the fold induction at 1 µM in assay [1] was above 1.5. Besides, the IC50 in assay [2] is at most 100 nM.
The like results for `NC(=O)Nc1cccc(-c2cccc3c(C(=O)N4CCCCC4)cnn23)c1` [Example 92, 1-(3-(3-(piperidine-1-carbonyl)pyrazolo[1,5-a]pyridin-7-yl)phenyl)urea] were, in that order, above 1.5 and at most 100 nM.
The like results for `O=C(c1cnn2c(-c3cnn(Cc4noc(=O)[nH]4)c3)cccc12)N1CCCCC1` [Example 396, 3-((4-(3-(piperidine-1-carbonyl)pyrazolo[1,5-a]pyridin-7-yl)-1H-pyrazol-1-yl)methyl)-1,2,4-oxadiazol-5(4H)-one] were, in that order, above 1.5 and at most 100 nM.
On the same counts, the results for `O=C(Cc1cccnc1)Nc1c(F)cc(-c2cccc3c(C(=O)N4CCCCC4)cnn23)cc1F` [Example 278, N-(2,6-difluoro-4-(3-(piperidine-1-carbonyl)pyrazolo[1,5-a]pyridin-7-yl)phenyl)-2-(pyridin-3-yl)acetamide] are above 1.5 and at most 100 nM.
For the compound `Cn1cnc2ccc(-c3cccc4c(C(=O)N5CCCCC5)cnn34)cc2c1=O` [Example 245, 3-methyl-6-(3-(piperidine-1-carbonyl)pyrazolo[1,5-a]pyridin-7-yl)quinazolin-4(3H)-one], in assay [1], the fold induction at 1 µM is above 1.5. Also, the half-inhibitory concentration (IC50) in assay [2] is at most 100 nM.
In the case of `O=C(c1cnn2c(-c3cc(F)nc(F)c3)cccc12)N1CCCCC1` [Example 273, (7-(2,6-difluoropyridin-4-yl)pyrazolo[1,5-a]pyridin-3-yl)(piperidin-1-yl)methanone], the fold induction at 1 µM in assay [1] is above 1.5. In assay [2], this compound came in with a half-inhibitory concentration (IC50) of at most 100 nM.
For `CN(C)CCNC(=O)c1ccc(-c2cccc3c(C(=O)N4CCCCC4)cnn23)cn1` [Example 79, N-(2-(dimethylamino)ethyl)-5-(3-(piperidine-1-carbonyl)pyrazolo[1,5-a]pyridin-7-yl)picolinamide], the fold induction at 1 µM in assay [1] is above 1.5. For the same compound, the IC50 in assay [2] is at most 100 nM.
The like results for `O=C(Nc1ccncc1)c1cncc(-c2cccc3c(C(=O)N4CCCCC4)cnn23)c1` [Example 54, 5-(3-(piperidine-1-carbonyl)pyrazolo[1,5-a]pyridin-7-yl)-N-(pyridin-4-yl)nicotinamide] were, in that order, above 1.5 and at most 100 nM.
On the same counts, the results for `O=C(Cc1ccc(C(F)(F)F)nc1)Nc1ccc(-c2cccc3c(C(=O)N4CCCCC4)cnn23)cn1` [Example 408, N-[5-[3-(piperidine-1-carbonyl)pyrazolo[1,5-a]pyridin-7-yl]-2-pyridyl]-2-[6-(trifluoromethyl)-3-pyridyl]acetamide] are above 1.5 and at most 100 nM.

(Values after patent EP4653437A2 (Innovo Therapeutics Inc., priority 2023, dated 2024).)
